11 compounds from ChEMBL document CHEMBL1201862, “PubChem BioAssay data set” (2004) can be followed below.

Structures are written as SMILES.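 All cell lines were grown in 96-well plates and treated with compound for 48 hours. Here, GI50 denotes the concentration required for 50% inhibition of growth.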 The source made the active and inactive calls. No stated cut-off is given here; in the data, active = GI50 up to about 1.1 µM and inactive = higher. Bridge positions count the residues as written; N and C are the ends. Peptide text beside a SMILES is read from it. * marks the point of attachment. Cbz = O=C(OCc1ccccc1)*

Common to all, as to assay: NCI-60 cell line screen, 48 h
The subject of assay [1] is OVCAR-3.
Assay [2] deals with Hs-578T.
In assay [3] the test system is HCT-15.
In assay [4] the test system is U-251.
In assay [5] the test system is ACHN.
The subject of assay [6] is SW-620.
For assay [7], the system named is HCT-116.
For assay [8], the system named is T47D.
The subject of assay [9] is MCF7.
The test system of assay [10] is UACC-257.
Assay [11] has as its system SR.
In assay [12] the test system is Malme-3M.
Assay [13] has as its system SK-MEL-2.
Assay [14] has as its system LOX IMVI.
The subject of assay [15] is MDA-N.
Assay [16] concerns PC-3.
Assay [17] concerns OVCAR-4.
The test system of assay [18] is NCI-H226.
Assay [19] has as its system SNB-75.

Regarding `COc1cc(Cn2c3c(c4cc(O)ccc42)C(=O)c2ccccc2C3=O)cc(OC)c1`, the GI50 in assay [1] is 20.6 µM (inactive); in assay [2], 11 µM (inactive); in assay [3], 11.7 µM; in assay [4], 3.6 µM (inactive); in [5], 1.61 µM (inactive); in [6], 16.7 µM (inactive). Further, the GI50 in assay [7] was 0.881 µM (active); in assay [8], 6.35 µM (inactive); in assay [9] it was 12.2 µM (inactive); in [10] it was 39.2 µM (inactive); in [11] it was 0.494 µM (active); in assay [12] it was 8.22 µM (inactive). The GI50 is 14.7 µM (inactive) in [13]; 31.7 µM (inactive) in assay [14]; 1.49 µM (inactive) in assay [15]; 2.46 µM (inactive) in assay [16]; 4.86 µM (inactive) in [17].

For `CC(=O)c1c2c(cc3c1CC1(C3)Cc3cc4c(c(C(C)=O)c3C1)CCCC4)CCCC2`, the GI50 in assay [1] was 41.6 µM (inactive); in assay [2], > 100 µM (inactive); in assay [3], 51.5 µM; in assay [4], > 100 µM (inactive); in assay [5] it was 27.9 µM (inactive); in assay [7], 55.8 µM (inactive). The GI50 was 62.2 µM (inactive) in [8]; 56.2 µM (inactive) in assay [9]; 25.1 µM (inactive) in assay [10]; 16.3 µM (inactive) in assay [11]; > 100 µM (inactive) in assay [12]; 19.7 µM (inactive) in [13]. Further, the GI50 was > 100 µM (inactive) in assay [14]; 38.4 µM (inactive) in assay [15]; > 100 µM (inactive) in assay [18]; 21.4 µM (inactive) in assay [16]; 53.2 µM (inactive) in assay [17].

Regarding `O=c1[nH]/c(=C/c2ccc3c(c2)OCO3)c(=O)[nH]/c1=C/c1ccc2c(c1)OCO2`, the GI50 in assay [1] was > 10 µM (inactive); in assay [2], > 10 µM (inactive); in assay [3], > 10 µM; in assay [4], > 10 µM (inactive); in assay [5], > 10 µM (inactive); in assay [19], > 10 µM (inactive). Also, the GI50 in assay [6], in assay [7], in assay [8], in [9], in assay [10] and in assay [12] was > 10 µM (inactive) each time. The GI50 in assay [13], in [14], in [15], in [18], in assay [16] and in assay [17] was > 10 µM (inactive) in each case.

Consider `Cc1ccc(-n2cc([Si](C)(C)C)nn2)s1`, for which the GI50 in assay [1] was > 100 µM (inactive); in [2], > 100 µM (inactive); in assay [3], > 100 µM; in [4], > 100 µM (inactive); in [5], > 100 µM (inactive); in assay [6], > 100 µM (inactive). Besides, the GI50 in [7], in assay [8], in assay [9], in assay [10], in assay [12] and in assay [13] was > 100 µM (inactive) throughout. Further, the GI50 in assay [14] is > 100 µM (inactive); in assay [15], > 100 µM (inactive); in assay [18], > 100 µM (inactive); in assay [16], 97.5 µM (inactive); in assay [17], > 100 µM (inactive).

Regarding `CNC(=O)C1CCCCNC(=O)CCC(NC(=O)OCc2ccccc2)C(=O)N1` (stereo not drawn) (Cbz-Glu-Lys-NHMe; lactam 1-2; configuration not given here), the GI50 in assay [1] was > 100 µM (inactive); in [2], > 100 µM (inactive); in assay [3] it was > 100 µM; in assay [4], > 100 µM (inactive); in assay [5], > 100 µM (inactive); in [19], > 100 µM (inactive). The GI50 in assay [6], in assay [7], in assay [8], in assay [9], in assay [10] and in [12] was > 100 µM (inactive) throughout. The GI50 in [13], in assay [14], in assay [15], in assay [18], in [16] and in [17] was > 100 µM (inactive) in each case.

In the case of `CC1(C)[C@@H]2C[C@H]1C(Cc1cccc(C[C@H]3c4cc(-c5ccccn5)ncc4[C@H]4C[C@@H]3C4(C)C)c1)c1cc(-c3ccccn3)ncc12` (stereo partly drawn), the GI50 in assay [1] is 0.502 µM (active); in [2], > 100 µM (inactive); in assay [3], 1.09 µM; in [4], 0.514 µM (active); in [5] it was 0.328 µM (active); in assay [19], 5.05 µM (inactive). In addition, the GI50 in [6] was 0.745 µM (active); in [7], 0.428 µM (active); in assay [8] it was 1.71 µM (inactive); in [9], 0.547 µM (active); in [10] it was 1.48 µM (inactive); in assay [13], 12.9 µM (inactive). Besides, the GI50 in assay [14] is 0.556 µM (active); in [15], 0.729 µM (active); in assay [16] it was 0.875 µM (active); in assay [17] it was 4.58 µM (inactive).

In the case of `CC(=O)OC1O[C@@H](C(C)(C)O)CC[C@@H]1[C@H]1CC[C@@]2(C)C3=C(CC[C@]12C)[C@@]1(C)C[C@@H](OC(=O)CC(C)(O)CC(=O)O)[C@H](OC(C)=O)C(C)(C)C1CC3` (stereo partly drawn), the GI50 in assay [1] was 18.6 µM (inactive); in assay [2], 19.5 µM (inactive); in assay [3], 22.4 µM; in assay [4], 16 µM (inactive); in assay [5] it was 18 µM (inactive); in assay [6], 17.5 µM (inactive). Moreover, the GI50 is > 10 µM (inactive) in [7]; 19.8 µM (inactive) in assay [8]; 18.3 µM (inactive) in assay [9]; 17.5 µM (inactive) in assay [10]; 23.4 µM (inactive) in [11]; 17.4 µM (inactive) in [12]. The GI50 in assay [13] is 16.4 µM (inactive); in assay [14], 17.7 µM (inactive); in assay [15], 19.2 µM (inactive); in assay [18], 21.7 µM (inactive); in assay [16] it was 17 µM (inactive); in [17] it was 18 µM (inactive).

For `CC1(c2ccc(Cl)s2)CC(c2ccc(Cl)s2)=C(C#N)C(=C(C#N)C#N)N1` (stereo not drawn), the GI50 in assay [1] was 15 µM (inactive); in [2], 29.5 µM (inactive); in assay [3], 17.4 µM; in assay [4] it was 17.3 µM (inactive); in assay [5] it was 17.5 µM (inactive); in [19], 22.2 µM (inactive). For the same compound, the GI50 in assay [6] was 13.9 µM (inactive); in [7] it was 17.3 µM (inactive); in assay [8], 18.8 µM (inactive); in assay [9], 17.6 µM (inactive); in assay [10] it was 21.9 µM (inactive); in assay [12], 22.8 µM (inactive). The GI50 in assay [13] is 18.6 µM (inactive); in [14], 22.3 µM (inactive); in assay [15], 22.4 µM (inactive); in assay [18], 26.9 µM (inactive); in [16], 17.6 µM (inactive); in assay [17], 16.5 µM (inactive).

On to `CN1C/C(=C\c2cccs2)C2=NC(=S)NC(c3cccs3)C2C1` (stereo not drawn), for which the GI50 in assay [1] is 76.4 µM (inactive); in assay [2], > 100 µM (inactive); in assay [3], 77.6 µM; in assay [4], > 100 µM (inactive); in [5] it was 64.9 µM (inactive); in [6] it was > 100 µM (inactive). The GI50 in [7] is 64.4 µM (inactive); in assay [8], 24.9 µM (inactive); in [9] it was 35.6 µM (inactive); in assay [10] it was 36.6 µM (inactive); in assay [11] it was 18.2 µM (inactive); in assay [12], 16 µM (inactive). Further, the GI50 in [13] was > 100 µM (inactive); in [14], 67.9 µM (inactive); in [15] it was 66.1 µM (inactive); in [18] it was > 100 µM (inactive); in assay [16], > 100 µM (inactive); in assay [17], 29.5 µM (inactive).

Consider `CCNC(=O)Cc1nc2c(N)ncnc2n1C1OC(CO)C(O)C1O` (stereo not drawn), for which the GI50 in assay [1] was > 100 µM (inactive); in [2], > 100 µM (inactive); in [3], > 100 µM; in assay [4] it was > 100 µM (inactive); in assay [5], > 100 µM (inactive); in assay [6], > 100 µM (inactive). The GI50 is > 100 µM (inactive) in assay [7]; 58.6 µM (inactive) in assay [8]; 23.3 µM (inactive) in assay [9]; > 100 µM (inactive) in [10]; > 100 µM (inactive) in [11]; > 100 µM (inactive) in assay [12]. For the same compound, the GI50 in [13] was 48.6 µM (inactive); in assay [14], > 100 µM (inactive); in assay [15] it was > 100 µM (inactive); in assay [18], > 100 µM (inactive); in assay [16], > 100 µM (inactive); in assay [17] it was 23.5 µM (inactive).

Regarding `O=c1cc(N2CCCC2)[nH]c(=O)n1-c1cccc(Cl)c1`, the GI50 was > 100 µM (inactive) in assay [1]; > 100 µM (inactive) in assay [2]; > 100 µM in [3]; > 100 µM (inactive) in assay [4]; > 100 µM (inactive) in [5]; > 100 µM (inactive) in assay [19]. Also, the GI50 in [6], in assay [7], in assay [8], in assay [9], in [10] and in assay [12] was > 100 µM (inactive) each time. The GI50 in assay [13], in assay [14], in assay [15], in assay [18], in assay [16] and in assay [17] was > 100 µM (inactive) throughout.
